Measured values from US6740666B2, “Substituted 8-arylquinoline phosphodiesterase-4 inhibitors” (Merck & Co., Inc., priority 2000, dated 2004).

Assay: Formation of metabolite in vivo after administration
Settings: Example 19 (a PDE4 inhibitor) formed when Example 14 is administered to a mammal
Experimental: For example, Example 19, (5-{(E)-2-(3-{6-[1-methyl-1-(methylsulfonyl)ethyl]-8-quinolinyl}phenyl)-1-[4-(methylsulfonyl)phenyl]ethenyl}-1,2,4-oxadiazol-3-yl)methanol: [drawing 2]
is administered. Accordingly, the present invention includes prodrugs that form PDE4 inhibitors in vivo as a metabolite after administering such prodrugs to a mammal. Further, this invention includes a method of treatment by a step of administering a prodrug to form in vivo an effective amount of a PDE4 inhibitor described by Formula I.

## Cc1noc(/C(=C/c2cccc(-c3cc(C(C)(C)S(C)(=O)=O)cc4cccnc34)c2)c2ccc(S(C)(=O)=O)cc2)n1 [Example 14, 6-[1-methyl-1-(methylsulfonyl)ethyl]-8-[3-[(E)-2-[3-methyl-1,2,4-oxadiazol-5-yl]-2-[4-(methylsulfonyl)phenyl]ethenyl]phenyl]quinoline]
  metabolite formed in vivo: formed in vivo as a metabolite
